The source made the active and inactive calls. The rule behind the calls is not given here.
system: Serine/threonine-protein kinase B-raf (Homo sapiens), P15056 [V600E]; assay: Inhibition of BRAF V600E mutant (unknown origin) assessed as inhibition of MEK phosphorylation at 2 uM by ELISA relative to control
Sequence (P15056 whole entry V600E): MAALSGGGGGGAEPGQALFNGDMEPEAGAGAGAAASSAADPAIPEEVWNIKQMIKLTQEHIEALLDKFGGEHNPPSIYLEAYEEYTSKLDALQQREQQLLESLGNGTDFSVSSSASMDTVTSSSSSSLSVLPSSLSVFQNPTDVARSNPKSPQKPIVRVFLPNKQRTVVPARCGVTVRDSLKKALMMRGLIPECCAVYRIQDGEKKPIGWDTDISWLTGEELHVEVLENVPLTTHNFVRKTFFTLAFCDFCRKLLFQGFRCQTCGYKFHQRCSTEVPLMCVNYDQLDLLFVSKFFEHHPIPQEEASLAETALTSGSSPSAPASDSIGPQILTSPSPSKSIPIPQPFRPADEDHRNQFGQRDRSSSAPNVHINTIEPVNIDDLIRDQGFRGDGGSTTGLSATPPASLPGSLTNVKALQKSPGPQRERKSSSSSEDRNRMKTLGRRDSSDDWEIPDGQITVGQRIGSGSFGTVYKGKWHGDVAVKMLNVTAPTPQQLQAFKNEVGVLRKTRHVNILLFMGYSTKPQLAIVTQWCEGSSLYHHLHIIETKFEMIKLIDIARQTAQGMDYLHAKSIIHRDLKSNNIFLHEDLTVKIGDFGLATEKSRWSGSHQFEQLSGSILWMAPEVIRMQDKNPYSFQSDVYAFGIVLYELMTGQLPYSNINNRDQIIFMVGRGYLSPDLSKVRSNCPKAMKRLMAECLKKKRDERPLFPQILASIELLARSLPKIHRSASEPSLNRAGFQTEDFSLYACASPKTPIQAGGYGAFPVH

| SMILES | inhibition |
| --- | --- |
| CCOC(=O)c1sc(NC(=O)c2ccccc2F)c(C#N)c1C | 51% |
| CCOC(=O)c1sc(NC(=O)c2cc(OC)cc(OC)c2)c(C#N)c1C | 85% |
| CCOC(=O)c1sc(NC(=O)c2cccc([N+](=O)[O-])c2)c(C#N)c1C | 36% |
| COC(=O)c1sc(NC(=O)c2ccccc2OC)c(C#N)c1C | inactive |
| CCOC(=O)c1sc(NC(=O)c2ccc(Cl)c(Cl)c2)c(C#N)c1C | 36% |
| CCOC(=O)c1sc(NC(=O)c2ccc(Cl)cc2)c(C#N)c1C | 60% |
| CCOC(=O)c1sc(NC(=O)c2cccc(C#N)c2)c(C#N)c1C | 40% |
| CCOC(=O)c1sc(NC(=O)c2ccco2)c(C#N)c1C | inactive |
| CCOC(=O)c1sc(NC(=O)c2ccc(N3CCN(C)CC3)cc2)c(C#N)c1C | inactive |
| CCOC(=O)c1sc(NC(=O)c2ccccc2C)c(C#N)c1C | 52% |
| CCOc1ccc(C(=O)Nc2sc(C(=O)OC(C)C)c(C)c2C#N)cc1 | inactive |
| CCOC(=O)c1sc(NC(=O)c2ccc(OC)c(OC)c2)c(C#N)c1C | 32% |
| CCOC(=O)c1sc(NC(=O)c2ccc(Cl)cc2)c(C(N)=O)c1C | 26% |
| CCOC(=O)c1sc(NC(=O)c2ccccc2Cl)c(C#N)c1C | inactive |
| CCOC(=O)c1sc(NC(=O)c2ccc(F)cc2)c(C(=O)Nc2ccccc2)c1C | 87% |
| CCOC(=O)c1sc(NC(=O)c2ccccc2OC)c(C#N)c1C | 42% |
| CCOC(=O)c1sc(NC(=O)c2cccc(C)c2)c(C#N)c1C | 50% |
| CCOC(=O)c1sc(NC(=O)c2cccc(OC)c2)c(C#N)c1C | 13% |
| Cc1c(C(=O)OC(C)C)sc(NC(=O)c2ccc(F)cc2)c1C#N | inactive |

| SMILES | inhibition |
| --- | --- |
| CCOC(=O)c1sc(NC(=O)c2ccccc2)c(C(=O)OCC)c1C | inactive |
| CCOC(=O)c1sc(NC(=O)c2ccc(C(=O)OC)cc2)c(C#N)c1C | 54% |
| CCOC(=O)c1sc(NC(=O)c2ccc(Br)cc2)c(C#N)c1C | inactive |
| CCOC(=O)c1sc(NC(=O)c2ccc(C(C)(C)C)cc2)c(C#N)c1C | 46% |
| CCOC(=O)c1sc(NC(=O)c2ccccc2I)c(C(=O)OC)c1C | inactive |
| CCOC(=O)c1sc(NC(=O)c2ccc(Cl)c(F)c2)c(C#N)c1C | 59% |
| CCOC(=O)c1sc(NC(=O)c2ccc(OCC)cc2)c(C#N)c1C | 69% |
| CCOC(=O)c1sc(NC(=O)c2cccc(Cl)c2)c(C#N)c1C | 57% |
| CCOC(=O)c1sc(NC(=O)c2ccc(C)c(OC)c2)c(C#N)c1C | inactive |
| CCOC(=O)c1sc(NC(=O)c2ccc(Cl)c([N+](=O)[O-])c2)c(C#N)c1C | 51% |
| CCOC(=O)c1sc(NC(=O)c2ccc(OC)cc2)c(C#N)c1C | 15% |
| COC(=O)c1sc(NC(=O)c2cc(OC)cc(OC)c2)c(C#N)c1C | inactive |
| CCOC(=O)c1sc(NC(=O)c2ccccc2F)c(C(N)=O)c1C | inactive |
| CCOC(=O)c1sc(NC(=O)c2ccc(C)cc2)c(C#N)c1C | 48% |
| CCOC(=O)c1sc(NC(=O)c2ccc(Cl)c(C(F)(F)F)c2)c(C#N)c1C | 60% |
| Cc1c(C(=O)OC(C)C)sc(NC(=O)c2ccc(Cl)c(Cl)c2)c1C#N | 42% |
| CCCOC(=O)c1c(NC(=O)c2ccccc2F)sc(C(=O)OCC)c1C | inactive |
| COC(=O)c1sc(NC(=O)c2cccc(C)c2)c(C#N)c1C | inactive |

biological target: Serine/threonine-protein kinase B-raf (Homo sapiens, UniProt P15056, V600E); assay: Inhibition of BRAF V600E mutant (unknown origin) assessed as inhibition of MEK phosphorylation by ELISA
Sequence (P15056 2-766 V600E limits assumed): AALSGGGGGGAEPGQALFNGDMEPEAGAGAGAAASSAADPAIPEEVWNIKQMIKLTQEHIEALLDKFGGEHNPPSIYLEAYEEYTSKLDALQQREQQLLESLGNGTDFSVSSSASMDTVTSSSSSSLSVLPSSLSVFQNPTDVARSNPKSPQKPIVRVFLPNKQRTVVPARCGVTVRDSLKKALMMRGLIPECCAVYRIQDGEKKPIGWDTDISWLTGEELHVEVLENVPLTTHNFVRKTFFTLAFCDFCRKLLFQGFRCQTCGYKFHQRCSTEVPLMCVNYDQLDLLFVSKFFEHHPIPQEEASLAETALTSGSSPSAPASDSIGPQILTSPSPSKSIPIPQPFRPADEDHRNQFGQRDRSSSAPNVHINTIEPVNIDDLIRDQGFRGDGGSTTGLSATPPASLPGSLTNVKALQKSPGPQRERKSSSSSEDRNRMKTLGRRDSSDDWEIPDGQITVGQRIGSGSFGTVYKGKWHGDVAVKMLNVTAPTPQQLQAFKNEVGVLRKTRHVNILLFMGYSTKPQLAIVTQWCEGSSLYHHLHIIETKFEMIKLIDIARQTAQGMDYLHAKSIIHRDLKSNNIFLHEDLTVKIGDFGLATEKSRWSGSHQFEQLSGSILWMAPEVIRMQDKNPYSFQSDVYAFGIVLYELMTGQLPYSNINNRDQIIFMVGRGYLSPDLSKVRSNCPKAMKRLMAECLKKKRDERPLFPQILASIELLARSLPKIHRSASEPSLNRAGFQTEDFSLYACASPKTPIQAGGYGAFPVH

| SMILES | IC50 [nM] |
| --- | --- |
| CCOC(=O)c1sc(NC(=O)c2cc(OC)cc(OC)c2)c(C#N)c1C | 770 |
| CCOC(=O)c1sc(NC(=O)c2ccccc2C)c(C#N)c1C | 2010 |
| CCOC(=O)c1sc(NC(=O)c2ccc(F)cc2)c(C(=O)Nc2ccccc2)c1C | 630 |
| CCOC(=O)c1sc(NC(=O)c2ccc(OCC)cc2)c(C#N)c1C | 1160 |
| CCOC(=O)c1sc(NC(=O)c2ccc(Cl)c([N+](=O)[O-])c2)c(C#N)c1C | 2160 |
| O=C1NC(=S)NC(=O)C1=Cc1ccc(-c2ccc(Br)cc2)o1 | 470 |

system: Serine/threonine-protein kinase B-raf (Homo sapiens), P15056 [V600E]; assay: Inhibition of BRAF V600E mutant (unknown origin) assessed as inhibition of MEK phosphorylation at 1 uM by ELISA relative to control

| SMILES | inhibition |
| --- | --- |
| CCOC(=O)c1sc(NC(=O)c2ccncc2)c(C#N)c1C | 22% |
| CCOC(=O)c1sc(NC(=O)c2cc(OC)cc(OC)c2)c(C#N)c1C | 60% |
| CCOC(=O)c1sc(NC(=O)c2cccnc2)c(C#N)c1C | 20% |
| CCOC(=O)c1sc(NC(=O)c2ccc(Cl)nc2)c(C#N)c1C | 10% |
| CCOC(=O)c1sc(NC(=O)c2cccc(NS(C)(=O)=O)c2)c(C#N)c1C | inactive |
| CCOC(=O)c1sc(NC(=O)c2ccccc2NS(C)(=O)=O)c(C#N)c1C | inactive |
| CCOC(=O)c1sc(NC(=O)c2ccc(F)cc2)c(C(=O)Nc2ccccc2)c1C | 66% |
| CCOC(=O)c1sc(NC(=O)c2ccccn2)c(C#N)c1C | 39% |
| CCCS(=O)(=O)Nc1cc(F)c(C(=O)Nc2sc(C(=O)OCC)c(C)c2C#N)c(F)c1 | 34% |
| CCOC(=O)c1sc(NC(=O)c2cccc(NC(C)=O)c2)c(C#N)c1C | 17% |
| CCOC(=O)c1sc(NC(=O)c2ccc(NS(C)(=O)=O)cc2)c(C#N)c1C | inactive |
| CCOC(=O)c1sc(NC(=O)c2ccc(NC(C)=O)cc2)c(C#N)c1C | inactive |

Source: ChEMBL document CHEMBL2390888, “Identification and synthesis of N-(thiophen-2-yl) benzamide derivatives as BRAF(V600E) inhibitors” (Bioorg Med Chem Lett, 2013)
